Measurements as given in patent US8883782B2, “Spiro-tetracyclic ring compounds as beta-secretase modulators and methods of use” (Amgen Inc., priority 2010, dated 2014).
Like-named read-outs stand apart in the source and are kept apart here.

Legend:
[1] = system: Aβ40 in conditioned medium of cells stably expressing Amyloid Precursor Protein (APP); test: In vitro BACE cell-based assay (Aβ40 in conditioned medium, sandwich ELISA); conditions: read-out: HEK cell assay
Experimental: In Vitro BACE Cell-Based Assay
The cell-based assay measures inhibition or reduction of Aβ40 in conditioned medium of test compound treated cells expressing amyloid precursor protein.
Cells stably expressing Amyloid Precursor Protein (APP) were plated at a density of 40K cells/well in 96 well plates (Costar). The cells were cultivated for 24 hours at 37° C. and 5% CO2 in DMEM supplemented with 10% FBS. The test compounds were then added to cells in 10-point dose response concentrations with the starting concentration being either 100 μM or 10 μM. The compounds were diluted from stock solutions in DMSO and the final DMSO concentration of the test compounds on cells was 0.1%. […] The IC50 of the compound was calculated from the percent of control or percent inhibition of Aβ 40 as a function of the concentration of the test compound.
The sandwich ELISA to detect Aβ 40 was performed in 96 well microtiter plates, which were pre-treated with goat anti-rabbit IgG (Pierce). The capture and detecting antibody pair that were used to detect Aβ 40 from cell supernatants were affinity purified pAb40 (Biosource) and biotinylated 6E10 (Signet Labs Inc.), respectively. The optimal concentration for the pAb40 antibody was 3 μg/ml in Superblock/TBS (Pierce) that was supplemented with 0.05% Tween 20 (Sigma).
Cellular supernatants were incubated with the capture antibody for 3 h at 4° C., followed by 3 wash steps in TBS-tween (0.05%). The detecting antibody incubation was for 2 h at 4° C., again followed by the wash steps as described previously. The final readout of the ELISA is Time-Resolved Fluorescence (counts per minute) using Delfia reagents Streptavidin-Europium and Enhancement solutions (Perkin Elmer) and the Victor 2 multilabel counter (Perkin Elmer).

[2] = target: Beta Secretase enzyme (BACE) (Homo sapiens, UniProt P56817); test: In vitro enzymatic BACE FRET (fluorescence resonance energy transfer) assay; assay type: biochemical; conditions: average IC50, enzyme assay; read-out: BACE 1 FRET assay
Summary of the method: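 Fluorescence read after Tris quench to neutral pH. Reaction: 50 nM fluorophore/quencher peptide substrate, 1 h, in 0.05 M acetate pH 4.2, 10% DMSO final, 100 uM genapol.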

[3] = Homo sapiens, HEK293, average IC50
[4] = Homo sapiens, HEK293, average IC50, HEK cells

Chain of Beta Secretase enzyme (BACE) (P56817 46-501, species assumed): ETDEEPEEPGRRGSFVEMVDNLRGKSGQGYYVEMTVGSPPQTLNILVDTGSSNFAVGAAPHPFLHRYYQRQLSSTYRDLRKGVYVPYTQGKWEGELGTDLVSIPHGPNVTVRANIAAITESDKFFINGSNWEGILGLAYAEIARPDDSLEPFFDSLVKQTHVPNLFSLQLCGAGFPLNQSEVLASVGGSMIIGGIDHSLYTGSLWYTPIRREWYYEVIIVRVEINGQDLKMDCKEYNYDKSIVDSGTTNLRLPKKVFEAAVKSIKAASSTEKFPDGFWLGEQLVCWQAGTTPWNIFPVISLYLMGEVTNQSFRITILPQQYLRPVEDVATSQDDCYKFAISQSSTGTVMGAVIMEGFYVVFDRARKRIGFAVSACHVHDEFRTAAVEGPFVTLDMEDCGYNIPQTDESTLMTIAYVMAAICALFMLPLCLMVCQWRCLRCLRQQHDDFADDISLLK

Row | SMILES | IC50 [1, 3] | IC50 [2] | IC50 [1, 4] | IC50 ([1]; average IC50, HEK cells)
1 | NC1=N[C@]2(CS1)c1cc(-c3cccnc3F)ccc1Oc1cnc(-c3ccnc(F)c3)cc12 [Example 992, (5R)-7-(2-fluoro-3-pyridinyl)-3-(2-fluoro-4-pyridinyl)spiro[chromeno[2,3-c]pyridine-5,4′-[1,3]thiazol]-2′-amine] | 1830 nM | 42.5 nM |  | 
2 | CN1CCN(c2cccc(-c3ccc4c(c3)[C@@]3(COC(N)=N3)c3cc(Cl)ncc3O4)c2)CC1(C)C [Example 531, (5S)-3-chloro-7-(3-(3,3,4-trimethyl-1-piperazinyl)phenyl)spiro[chromeno[2,3-c]pyridine-5,4′-[1,3]oxazol]-2′-amine] |  | 13700 nM | 334 nM | 
3 | NC1=N[C@@]2(CO1)c1cc(-c3cncc(N4CCOCC4)c3)ccc1Oc1c(F)cc(N3CCOCC3)cc12 [Example 209, (4S)-4′-fluoro-2′-(4-morpholinyl)-7′-(5-(4-morpholinyl)-3-pyridinyl)spiro[1,3-oxazole-4,9′-xanthen]-2-amine] | 209 nM | 249 nM |  | 
4 | NC1=N[C@@]2(CO1)c1cc(-c3c(F)ccnc3F)ccc1Oc1cnc([C@H]3CCCCO3)cc12 [Example 914, (5S)-7-(2,4-difluoro-3-pyridinyl)-3-((2R)-tetrahydro-2H-pyran-2-yl)spiro[chromeno[2,3-c]pyridine-5,4′-[1,3]oxazol]-2′-amine] |  | 13.5 nM |  | 102 nM
5 | COc1cc(F)c2c(c1)[C@@]1(COC(N)=N1)c1cc(-c3cncnc3)c(F)cc1O2 [Example 555, (4R)-3′,5′-difluoro-7′-methoxy-2′-(5-pyrimidinyl)spiro[1,3-oxazole-4,9′-xanthen]-2-amine] |  | 290 nM | 1700 nM | 
6 | C[C@H]1CN(c2cc3c(cn2)Oc2ccc(-c4cccnc4N4CCN(C)[C@@H](C)C4)cc2[C@@]32COC(N)=N2)CCN1C [Example 530, (5S)-3-((3S)-3,4-dimethyl-1-piperazinyl)-7-(2-((3S)-3,4-dimethyl-1-piperazinyl)-3-pyridinyl)spiro[chromeno[2,3-c]pyridine-5,4′-[1,3]oxazol]-2′-amine] |  | 3370 nM | 195 nM | 
7 | Cc1ccnn1-c1cc(F)c2c(c1)[C@]1(COC(N)=N1)c1cc(-c3cccnc3)ccc1O2 [Example 634, (4S)-4′-fluoro-2′-(5-methyl-1H-pyrazol-1-yl)-7′-(3-pyridinyl)spiro[1,3-oxazole-4,9′-xanthen]-2-amine] |  | 30.3 nM | 154 nM | 
8 | CC1(COc2cc(F)c3c(c2)[C@@]2(CSC(N)=N2)c2cc(-c4cccnc4F)ccc2O3)COC1 [Example 793, (4R)-4′-fluoro-7′-(2-fluoro-3-pyridinyl)-2′-((3-methyl-3-oxetanyl)methoxy)spiro[1,3-thiazole-4,9′-xanthen]-2-amine] | 4810 nM | 180 nM |  | 
9 | CC1(C)CC(c2cnc3c(c2)[C@@]2(COC(N)=N2)c2c(ccc(-c4cccnc4F)c2F)O3)=CCO1 [Example 351, (5S)-3-(2,2-dimethyl-3,6-dihydro-2H-pyran-4-yl)-6-fluoro-7-(2-fluoro-3-pyridinyl)spiro[chromeno[2,3-b]pyridine-5,4′-[1,3]oxazol]-2′-amine] | 854 nM | 389 nM |  | 
10 | NC1=N[C@@]2(CO1)c1cc(-c3cccnc3O)ccc1Oc1cnc(-c3ccnc(F)c3)cc12 [Example 712, (S)-3-(2′-amino-3-(2-fluoropyridin-4-yl)-5′H-spiro[chromeno[2,3-c]pyridine-5,4′-oxazole]-7-yl)pyridin-2-ol] | 1090 nM | 69.7 nM |  | 

Compounds with a lower IC50 [2], results first:

Row | IC50 [1, 3] | IC50 [2] | IC50 [1, 4] | IC50 ([1]; average IC50, HEK cells) | SMILES
11 | 114 nM | 6.3 nM |  |  | NC1=N[C@@]2(CO1)c1cc(-c3cc(C4=CCOCC4)cnc3F)ccc1Oc1cnc(C3=CCOCC3)cc12 [Example 362, (5S)-3-(3,6-dihydro-2H-pyran-4-yl)-7-(5-(3,6-dihydro-2H-pyran-4-yl)-2-fluoro-3-pyridinyl)spiro[chromeno[2,3-c]pyridine-5,4′-[1,3]oxazol]-2′-amine]
12 | 15.9 nM | 4.8 nM |  |  | NC1=N[C@@]2(CO1)c1cc(-c3ccc(F)nc3)ccc1Oc1c(F)cc(C3CCOCC3)cc12 [Example 301, (4S)-4′-fluoro-7′-(6-fluoro-3-pyridinyl)-2′-(tetrahydro-2H-pyran-4-yl)spiro[1,3-oxazole-4,9′-xanthen]-2-amine]
13 | 86.6 nM | 4.5 nM |  |  | CC1(C#Cc2cnc3c(c2)[C@]2(COC(N)=N2)c2cc(-c4ccc(F)c(F)c4)ccc2O3)COC1 [Example 188, (5S)-7-(3,4-difluorophenyl)-3-((3-methyl-3-oxetanyl)ethynyl)spiro[chromeno[2,3-b]pyridine-5,4′-[1,3]oxazol]-2′-amine]
14 | 22 nM | 3.1 nM |  |  | CC1(C)CCN(c2cnc3c(c2)[C@]2(COC(N)=N2)c2cc(C#CC4CC4)ccc2O3)C1 [Example 182, (5S)-7-(cyclopropylethynyl)-3-(3,3-dimethyl-1-pyrrolidinyl)spiro[chromeno[2,3-b]pyridine-5,4′-[1,3]oxazol]-2′-amine]
15 |  | 3 nM | 28 nM |  | CC#Cc1cncc(-c2ccc3c(c2)[C@@]2(COC(N)=N2)c2cc(-c4ncccn4)ncc2O3)c1 [Example 936, (5S)-7-(5-(1-propyn-1-yl)-3-pyridinyl)-3-(2-pyrimidinyl)spiro[chromeno[2,3-c]pyridine-5,4′-[1,3]oxazol]-2′-amine]
16 |  | 2.4 nM | 23 nM |  | Cc1ccn(-c2cc(F)c3c(c2)[C@]2(COC(N)=N2)c2cc(-c4cncnc4)ccc2O3)n1 [Example 635, (4S)-4′-fluoro-2′-(3-methyl-1H-pyrazol-1-yl)-7′-(5-pyrimidinyl)spiro[1,3-oxazole-4,9′-xanthen]-2-amine]
17 |  | 2 nM | 63 nM |  | NC1=N[C@@]2(CO1)c1cc(-c3cccnc3F)ccc1Oc1c(F)cc(-n3cccn3)cc12 [Example 691, (4S)-4′-fluoro-7′-(2-fluoro-3-pyridinyl)-2′-(1H-pyrazol-1-yl)spiro[1,3-oxazole-4,9′-xanthen]-2-amine]
18 | 7.6 nM | 0.8 nM |  |  | CC1(C#Cc2cc3c(nc2F)Oc2ccc(-c4cccnc4F)cc2C32COC(N)=N2)COC1 (centres unmarked) [Example 149, 2-fluoro-7-(2-fluoro-3-pyridinyl)-3-((3-methyl-3-oxetanyl)ethynyl)spiro[chromeno[2,3-b]pyridine-5,4′-[1,3]oxazol]-2′-amine]
19 |  | 0.7 nM | 1 nM |  | CC#Cc1cncc(-c2ccc3c(c2)[C@@]2(COC(N)=N2)c2cc(C#CC4(C)COC4)cnc2O3)c1 [Example 943, (5S)-3-((3-methyl-3-oxetanyl)ethynyl)-7-(5-(1-propyn-1-yl)-3-pyridinyl)spiro[chromeno[2,3-b]pyridine-5,4′-[1,3]oxazol]-2′-amine]
20 |  | 0.7 nM | 106 nM |  | COc1ccc(-c2cc3c(cn2)Oc2ccc(-c4cccc(Cl)c4)cc2[C@@]32COC(N)=N2)cc1F [Example 535, (5S)-7-(3-chlorophenyl)-3-(3-fluoro-4-methoxyphenyl)spiro[chromeno[2,3-c]pyridine-5,4′-[1,3]oxazol]-2′-amine]
21 |  | 0.6 nM | 4 nM |  | CC#Cc1cncc(-c2ccc3c(c2)[C@@]2(COC(N)=N2)c2cc(N4CCOCC4)cc(F)c2O3)c1 [Example 952, (4S)-4′-fluoro-2′-(4-morpholinyl)-7′-(5-(1-propyn-1-yl)-3-pyridinyl)spiro[1,3-oxazole-4,9′-xanthen]-2-amine]
22 | 7 nM | 0.6 nM |  |  | CC#Cc1cncc(-c2ccc3c(c2)[C@@]2(COC(N)=N2)c2cc(C4=CCOCC4)nc(OC)c2O3)c1 [Example 835, (5S)-3-(3,6-dihydro-2H-pyran-4-yl)-1-methoxy-7-(5-(1-propyn-1-yl)-3-pyridinyl)spiro[chromeno[2,3-c]pyridine-5,4′-[1,3]oxazol]-2′-amine]
23 | 17 nM | 0.5 nM |  |  | NC1=N[C@@]2(CO1)c1cc(-c3cccnc3F)ccc1Oc1c2cc(C2=CCOCC2)c(F)c1F [Example 1011, (4S)-2′-(3,6-dihydro-2H-pyran-4-yl)-3′,4′-difluoro-7′-(2-fluoro-3-pyridinyl)spiro[1,3-oxazole-4,9′-xanthen]-2-amine]
24 |  | 0.5 nM | 4.5 nM |  | CC1(CCc2cc(F)c3c(c2)[C@]2(COC(N)=N2)c2cc(-c4cccnc4F)ccc2O3)COC1 [Example 101, (S)-4′-fluoro-7′-(2-fluoropyridin-3-yl)-2′-(2-(3-methyloxetan-3-yl)ethyl)-5H-spiro[oxazole-4,9′-xanthen]-2-amine]
25 |  | 0.3 nM | 11 nM |  | NC1=N[C@@]2(CO1)c1cc(-c3cncc(F)c3)ccc1Oc1c2cc(-c2cccnc2)nc1F [Example 630, (5S)-1-fluoro-7-(5-fluoro-3-pyridinyl)-3-(3-pyridinyl)spiro[chromeno[2,3-c]pyridine-5,4′-[1,3]oxazol]-2′-amine]
